“Also recorded” adds a separate entry of the source.

The first assay concerns mitochondria or chloroplast of Chlamydomonas reinhardtii. Kind of assay: Subcellular localization of Venus reporter by epifluorescence microscopy (manual targeting assignment). The format is cell-based. As to conditions: 15 N-terminal residues of RCA1-cTP added, no C-terminal element; Figure 2. The source says: In a bid to keep peptidase recognition sites intact, C-terminal elements were designed to start 10 residues upstream of the cleavage site, even though this slightly truncates TP helices. Peptides carrying the 15-amino-acid cTP N-terminus (cTP-N) will be denoted ^cP. Similarly, peptides with C-terminal elements from RCA1-cTP (cTP-C) or CAG2-mTP (mTP-C) will be denoted P^c or P^m, respectively. Peptide variants are used to drive the subcellular localization of a Venus fluorescent reporter protein, which was assessed using fluorescence microscopy; in Figure 2, an executive overview of observed Venus localization is presented for all constructs. […] Here, we use automated image segmentation to validate our subcellular localization assessment (Supplemental Figure 2, Supplemental text). […] The reader will be asked to return to Figure 2 throughout, with Figures 3 and 4 providing selected micrographs as examples highlighting particular points of interest.
Chlamydomonas TP sequences were amplified from genomic DNA extracted from strain T222+ (CC-5101). Templates for codon-optimized HA-RAMP, RP, and R→K modified TP sequences were obtained by gene synthesis (Eurofins Genomics). Correct assembly was verified by sequencing (Eurofins Genomics). Linear transformation cassettes were generated through restriction digestion with EcoRV (New England Biolabs).
Constructs were transformed into wild-type strain T222+ (CC-5101) using a protocol described previously ([Onishi and Pringle, 2016]), except using 4 μl of DNA at 2 μg/μl.
Strains with suspected mitochondrial targeting were treated with 0.1 μM MitoTracker Red CMXRos (Thermo Fisher Scientific) in growth medium for 30 min in the dark and washed with TAP prior to taking images.
Legend for Fig. S3 – S20. Three independent transformant lines (Strains 1-3) are shown for each combination of modifications (A-L), represented by a cartoon and a shorthand description (cf. Fig.
2). Where a construct was interpreted as generating reporter localization in mitochondria or […]
Epifluorescence microscopy images of typical cells for each strain are shown. MitoTracker fluorescence, false-coloured in cyan, indicates the position of mitochondria (although parts of the cell exterior are sometimes also stained). False-coloured yellow fluorescence from the Venus channel reports on the subcellular localization of the fluorescent reporter. Chlorophyll autofluorescence, shown in magenta, indicates the location of the chloroplast. Scale bars are 5µm. Brightness (Br.) was adjusted for clarity: fluorescence intensity values were restricted to the range shown for each channel by matching coloured rectangles. Intensity scales to 0 at the bottom of the panel, and to 65535 at the top.
On the right-hand side, quantitative information associated with each construct is shown. Data was normalized such that averages range from 0 to 1 across all constructs (cf. Fig S2). Individual cell measurements may exceed this range; for clarity, the range shown here is limited to -0.5 to 1.5, with outliers that have more extreme values shown as lying beyond a dashed line. Strain 1 is plotted as circles, strain 2 as squares, and strain 3 as diamonds. Venus: Fluorescence plate reader data of transformants screened for this construct (Venus fluorescence, accounting for cell density using linear regression of OD750 and chlorophyll fluorescence trained on ‘no venus’ control transformants). Transformants that were not selected after screening are shown as small grey circles. A colour code ranging from white (low Venus fluorescence) to black (high Venus fluorescence) is used for strains 1-3 and the average thereof. Automated image quantification data: pyr/chl: Venus channel signal in the pyrenoid relative to in the chlorophyll region; mt/cell: Venus channel signal in mitochondria relative to the whole cell. Each point corresponds to a single cell.
The colour code code is the same as that below distributions in Fig. S2, i.e. blue highlights the […]
“GKIPVKAIKKAGAAIGKGLRAINIASTAHDVYSFFKPKHKKK [SIM, SI moricin, HA-RAMP antimicrobial peptide, reference compound]”: the “chloroplast targeting upon sole addition of cTP-N (^cP)” value is recorded as “at least partial chloroplast targeting; also recorded: generated chloroplast targeting”. Take “GWIRDFGKRIERVGQHTRDATIQTIAVAQQAANVAATLKG [S1D, sarcotoxin-1D, HA-RAMP antimicrobial peptide, reference compound]”: the “mitochondrial targeting upon sole addition of cTP-N (^cP)” value was “enabled mitochondrial targeting”.

The assay is the same for the next values; noted with them: C-terminal element of RCA1-cTP added to the named peptide; Figure 2 rows E and F; bare name = K and R versions.
For the sequence “GWIRDFGKRIERVGQHTRDATIQTIAVAQQAANVAATLKG [S1D, sarcotoxin-1D, HA-RAMP antimicrobial peptide, reference compound]”, the “chloroplast targeting upon addition of cTP-C (P^c)” value is on record as “enabled chloroplast targeting”. Same read-out and setting: the value for “KYYGNGVHCTKSGCSVNWGEAFSAGVHRLANGGNGFW [LCA, leucocin A, HA-RAMP antimicrobial peptide, reference compound]” was “enabled chloroplast targeting”. For “KYYGNGVSCNKKGCSVDWGKAIGIIGNNAAANLTTGGKAGWKG [EHF, enterocin HF, HA-RAMP antimicrobial peptide, reference compound]”, the “chloroplast targeting upon addition of cTP-C (P^c)” value is “enabled chloroplast targeting”.

The same assay, now with this note: C-terminal element of RCA1-cTP added to the named peptide; Figure 2 rows E and F; bare name = K and R versions; listed as LCAK.
Turning to “KYYGNGVHCTKSGCSVNWGEAFSAGVHRLANGGNGFW [LCA, leucocin A, HA-RAMP antimicrobial peptide, reference compound]”, the “chloroplast targeting upon addition of cTP-C (P^c)” value is “Gain of partial chloroplast targeting”.

Still in this assay, the particulars now being: Figure 2; bare name = K and R versions.
For “GKIPVKAIKKAGAAIGKGLRAINIASTAHDVYSFFKPKHKKK [SIM, SI moricin, HA-RAMP antimicrobial peptide, reference compound]”, the “targeting when combining cTP-N with mTP-C (^cP^m)” value is reported as “chloroplast targeting”. Still for that read-out and setting: the value for “GLFSKFNKKKIKSGLIKIIKTAGKEAGLEALRTGIDVIGCKIKGEC [E1S, esculentin-1SEA, HA-RAMP antimicrobial peptide, reference compound]” was “chloroplast targeting”. On the same count and under the same terms, the value for “GWIRDFGKRIERVGQHTRDATIQTIAVAQQAANVAATLKG [S1D, sarcotoxin-1D, HA-RAMP antimicrobial peptide, reference compound]” was “dual targeting”; that for “KYYGNGVHCTKSGCSVNWGEAFSAGVHRLANGGNGFW [LCA, leucocin A, HA-RAMP antimicrobial peptide, reference compound]” was “chloroplast targeting”; that for “KYYGNGVSCNKKGCSVDWGKAIGIIGNNAAANLTTGGKAGWKG [EHF, enterocin HF, HA-RAMP antimicrobial peptide, reference compound]” was “chloroplast targeting”.

Still in this assay, the particulars now being: manual targeting assignment of the Venus reporter construct in Chlamydomonas: Neither / Mitochondria / Chloroplast / Dual, (partial) = partial targeting.
With “MALWRTMLRRLGTMALHAGRAAFGAAADTISQ [DDM.R]”, the Localisation entry is on record as “Neither”.

As for “MALWRTMLRRLGTMALHAGRAAFGAAADTISQLTQTAESFRGVSSQFFDAPNGPSVKQVLIEDEW [DDM.R.m]”, the Localisation entry is “Neither”.

For “MALWRTMLRRLGTMALHAGRAAFGAAADTISQSVRRAQLQVVASSRKQMGRWRSIDAGVDASDDQ [DDM.R.c]”, the Localisation result is “Neither”. Turning to MDEVNNDNCRIRFRGDISSESDRMNINY [RP2.R], the Localisation entry is reported as “Neither”. Same read-out and setting: the value for “MDEVNNDNCRIRFRGDISSESDRMNINYLTQTAESFRGVSSQFFDAPNGPSVKQVLIEDEW [RP2.R.m]” was “Neither”; that for “MDEVNNDNCRIRFRGDISSESDRMNINYSVRRAQLQVVASSRKQMGRWRSIDAGVDASDDQ [RP2.R.c]” was “Neither”; that for MGGAKVATK [CH.K] was “Neither”. Still for that read-out and setting: the value for “MGGAKVATKLTQTAESFRGVSSQFFDAPNGPSVKQVLIEDEW [CH.K.m]” was “Neither”; that for “MGGAKVATKSVKKAQLQVVASSKKQMGKWKSIDAGVDASDDQ [CH.K.c]” was “Neither”; that for MGGARVATR [CH.R] was “Neither”. Same read-out and setting: the value for “MGGARVATRLTQTAESFRGVSSQFFDAPNGPSVKQVLIEDEW [CH.R.m]” was “Neither”; that for “MGGARVATRSVRRAQLQVVASSRKQMGRWRSIDAGVDASDDQ [CH.R.c]” was “Chloroplast”.

Staying with this assay, now noted: peptide-Venus reporter construct expressed in Chlamydomonas reinhardtii; manual targeting assignment (Neither / Mitochondria / Chloroplast / Dual; partial = partial targeting).
For the sequence MALWMTLLKKVLKAAAKAALNAVLVGANA [DS4.K], the Localisation entry is on record as “Neither”. Same read-out and setting: the value for “MALWMTLLKKVLKAAAKAALNAVLVGANALTQTAESFRGVSSQFFDAPNGPSVKQVLIEDEW [DS4.K.m]” was “Neither”; that for “MALWMTLLKKVLKAAAKAALNAVLVGANASVRRAQLQVVASSRKQMGRWRSIDAGVDASDDQ [DS4.K.c]” was “Neither”.

As to MALWMTLLRRVLRAAARAALNAVLVGANA [DS4.R], the Localisation entry is on record as “Neither”. Same read-out and setting: the value for “MALWMTLLRRVLRAAARAALNAVLVGANASVRRAQLQVVASSRKQMGRWRSIDAGVDASDDQ [DS4.R.c]” was “Neither”; that for MFLPLLAGLAANFLPKIFCKITRKC [B1E.K] was “Neither”.

On to “MFLPLLAGLAANFLPKIFCKITRKCLTQTAESFRGVSSQFFDAPNGPSVKQVLIEDEW [B1E.K.m]”, for which the Localisation entry was “Neither”. The same measure, in the same setting: the value for “MFLPLLAGLAANFLPKIFCKITRKCSVRRAQLQVVASSRKQMGRWRSIDAGVDASDDQ [B1E.K.c]” was “Neither”. As for MFLPLLAGLAANFLPRIFCRITRRC [B1E.R], the Localisation result was “Neither”. On the same count and under the same terms, the value for “MFLPLLAGLAANFLPRIFCRITRRCLTQTAESFRGVSSQFFDAPNGPSVKQVLIEDEW [B1E.R.m]” was “Neither”; that for “MFLPLLAGLAANFLPRIFCRITRRCSVRRAQLQVVASSRKQMGRWRSIDAGVDASDDQ [B1E.R.c]” was “Neither”. Same read-out and setting: the value for MGIGKFLHSAKKFGKAFVGEIMNS [MII.K] was “Mitochondria (partial)”. Still for that read-out and setting: the value for “MGIGKFLHSAKKFGKAFVGEIMNSLTQTAESFRGVSSQFFDAPNGPSVKQVLIEDEW [MII.K.m]” was “Mitochondria (partial)”; that for “MGIGKFLHSAKKFGKAFVGEIMNSSVRRAQLQVVASSRKQMGRWRSIDAGVDASDDQ [MII.K.c]” was “Mitochondria”; that for MGIGRFLHSARRFGRAFVGEIMNS [MII.R] was “Mitochondria”. Consider “MGIGRFLHSARRFGRAFVGEIMNSLTQTAESFRGVSSQFFDAPNGPSVKQVLIEDEW [MII.R.m]”, for which the Localisation entry is reported as “Mitochondria (partial)”. The same measure, in the same setting: the value for “MGIGRFLHSARRFGRAFVGEIMNSSVRRAQLQVVASSRKQMGRWRSIDAGVDASDDQ [MII.R.c]” was “Mitochondria”; that for “MGLFSKFNKKKIKSGLIKIIKTAGKEAGLEALRTGIDVIGCKIKGEC [E1S.K]” was “Neither”; that for “MGLFSKFNKKKIKSGLIKIIKTAGKEAGLEALRTGIDVIGCKIKGECLTQTAESFRGVSSQFFDAPNGPSVKQVLIEDEW [E1S.K.m]” was “Neither”. Same read-out and setting: the value for “MGLFSKFNKKKIKSGLIKIIKTAGKEAGLEALRTGIDVIGCKIKGECSVRRAQLQVVASSRKQMGRWRSIDAGVDASDDQ [E1S.K.c]” was “Neither”.

Still in this assay, the particulars now being: targeting of the Venus reporter fused to the peptide, expressed in Chlamydomonas reinhardtii; manual assignment from epifluorescence microscopy; full or partial.
Consider “MALWKTMLKKLGTMALHAGKAAFGAAADTISQ [DDM.K]”, for which the Localisation result is “Neither”.

As for “MALWKTMLKKLGTMALHAGKAAFGAAADTISQLTQTAESFRGVSSQFFDAPNGPSVKQVLIEDEW [DDM.K.m]”, the Localisation entry was “Neither”. Same read-out and setting: the value for “MALWKTMLKKLGTMALHAGKAAFGAAADTISQSVRRAQLQVVASSRKQMGRWRSIDAGVDASDDQ [DDM.K.c]” was “Neither”.

In the case of “MALWMTLLRRVLRAAARAALNAVLVGANALTQTAESFRGVSSQFFDAPNGPSVKQVLIEDEW [DS4.R.m]”, the Localisation result was “Neither”.

On to MDEVNNDNCRIKFKGDISSESDKMNINY [RP2.K], for which the Localisation entry is “Neither”. Still for that read-out and setting: the value for “MDEVNNDNCRIKFKGDISSESDKMNINYLTQTAESFRGVSSQFFDAPNGPSVKQVLIEDEW [RP2.K.m]” was “Neither”; that for “MDEVNNDNCRIKFKGDISSESDKMNINYSVRRAQLQVVASSRKQMGRWRSIDAGVDASDDQ [RP2.K.c]” was “Neither”; that for “MGKIPVKAIKKAGAAIGKGLRAINIASTAHDVYSFFKPKHKKK [SIM.K]” was “Neither”.

“MGKIPVKAIKKAGAAIGKGLRAINIASTAHDVYSFFKPKHKKKLTQTAESFRGVSSQFFDAPNGPSVKQVLIEDEW [SIM.K.m]”: the Localisation entry is “Neither”.

Consider “MGKIPVKAIKKAGAAIGKGLRAINIASTAHDVYSFFKPKHKKKSVRRAQLQVVASSRKQMGRWRSIDAGVDASDDQ [SIM.K.c]”, for which the Localisation entry was “Neither”.

The record behind these values is paper PMC10363480 (Plant Communications, 2023).
